Experiments:
Type in all cases: cell-based
[1] = tested on: Inoculum of bacteria (Activated sludge taken from Domestic Waste Water treatment Plant—Haifa); assay: Microbial efficacy (% bacteria killed) at different TOC loading, activated sludge inoculum (Example 60); conditions: 30 min, pH 7
Protocol: (§1) Inoculum of bacteria (Activated sludge taken from Domestic Waste Water treatment Plant—Haifa).
(§2) R2A agar for general counting.
(§3) Tryptone, in amounts 0.025, 0.119, and 0.239 g solid tryptone respectively, was weighed and dissolved in 1 liter of buffer.
Neutralization solution (NaHSO4). […]
1) 1 ml of inoculum was added to tryptone solutions (placed in 3 Erlenmeyers, 100 ml each, with different concentrations of TOC-0, 10 and 50 ppm).
(§4) 2) 1 ml of each sample was inoculated on R2A agar (pour plate method). The result stands for the bacteria count at zero time.
3) For each of the tryptone concentrations (0, 10, 50 ppm TOC) an inoculum of bacteria (1 ml) and the appropriate biocide concentration were added.
(§5) 4) After 30 min. of shaking (100 rpm), 1 ml of each sample was transferred to a tube filled with 9 ml of the neutralization solution. An aliquot of 1 ml was taken from this solution and added to another tube containing 9 ml of buffer solution. The solution was mixed under vortex. This operation was repeated for 4 more times.
(§6) 5) 1 ml from the two lowest dilutions was inoculated on a R2A agar (by the pour plate method).
(§7) 6) After the plates were incubated at 25° C. for 5-7 days, the bacteria count was recorded.

[2] = tested on: Pseudomonas aeruginosa (ATCC 15442); assay: Microbial efficacy (% bacteria killed) at different TOC loading against Pseudomonas aeruginosa (Example 60)
Protocol: Pseudomonas aeruginosa (ATCC 15442) […]
2) 1 ml of each sample was inoculated on R2A agar (pour plate method). The result stands for the bacteria count at zero time. […]
as §5, §6, §7
7) The above experiment was repeated with Pseudomonas aeruginosa ATCC 15442 (instead of using an inoculums from sludge), which is representative bacteria that form biofilms.
Microbial efficacy of different biocides against Pseudomonas aeruginosa (ATCC 15442) replacing the use activated sludge bacteria.

[3] = tested on: Pseudomonas aeruginosa (ATCC 15442) entrapped in alginate gel beads; assay: Biocidal activity against simulated biofilm systems (alginate beads), Example 60
Protocol: The biofilm simulation was created by entrapping bacteria in alginate gel beads. […] Buffer phosphate at pH 7.2 was used to scrap off the bacteria from the agar plate and to create a suspension. The bacterial suspension was mixed with an equal volume of an aqueous 4% sodium alginate solution, to make a final 2% alginate solution. The alginate and bacterial slurry were placed in a 50 ml syringe attached to a gauge needle (22), connected to a compressed air tank, allowing the syringe to be pressurized. At 20 psig pressure a stream of small drops was forced out and dropped into a stirred solution of 50 mM CaCl2. The Ca^+2 hardened the alginate, and semi solid beads with entrapped bacterial cells were formed. The beads were allowed to stir in the CaCl2 solution for about 20 minutes, and then rinsed in a dilute 5 mM CaCl2 solution. Several flasks containing 100 beads each were incubated overnight at 35° C. on a rotating shaker in a buffer solution (at pH 7) with 5 mM addition of CaCl2 to maintain the beads structure. The resulting beads diameter is about 2 mm.
The neutralizer-citrate solution was placed in the refrigerator for 2 hours, than diluted and placed on R2A agar plates using pour plate technique. The plates were incubated at 35° C. for 24-48 hours and counted. The efficacy and toxicity of the neutralizer were checked as well as a control experiment without biocide addition. Four concentrations (0.5, 1, 2.5 and 5 ppm) were tested at four different contact times (5, 15, 30, and 60 min). […] In addition, the efficacy of bromourea from chlorourea and NaBr (1:0.5 molar ratio) was tested at the same concentrations (mentioned above) and after a long contact time of 24 hours (Table 23).

[4] = tested on: Inoculum of bacteria (Activated sludge taken from Domestic Waste Water treatment Plant—Haifa); assay: Microbial efficacy (% kill) at different TOC loading, activated sludge inoculum (Examples 12-13); conditions: TOC 100 ppm, 30 min, pH 7
Protocol: as §1, §2, §3
Neutralization solution (NaHSO4).
The biocidal efficacy of the antifouling composition at different organic loads of 0, […], 50 and 100 ppm TOC, was examined under different biocidal concentrations (1, 2.5, and 5 ppm) at pH 7.
1) 1 ml of inoculum was added to tryptone solutions (placed in […], 100 ml each, with different concentrations of TOC-0, 10, 50 and 100 ppm).
as §4
3) For each of the tryptone concentrations (0, 10, 50, 100 ppm TOC) an inoculum of bacteria (1 ml) and the appropriate biocide concentration were added.
as §5, §6, §7

[5] = TOC 0 ppm, biocide 2.5 ppm as Cl2
[6] = TOC 0 ppm, biocide 5 ppm as Cl2
[7] = TOC 0 ppm, biocide 10 ppm as Cl2
[8] = TOC 10 ppm, biocide 2.5 ppm as Cl2
[9] = TOC 10 ppm, biocide 5 ppm as Cl2
[10] = TOC 10 ppm, biocide 10 ppm as Cl2
[11] = TOC 50 ppm, biocide 2.5 ppm as Cl2
[12] = TOC 50 ppm, biocide 5 ppm as Cl2
[13] = TOC 50 ppm, biocide 10 ppm as Cl2
[14] = TOC 100 ppm, biocide 2.5 ppm as Cl2
[15] = TOC 100 ppm, biocide 5 ppm as Cl2
[16] = biocide 0.5 ppm as Cl2, contact time 0 (initial count)
[17] = biocide 0.5 ppm as Cl2, contact time 5 min
[18] = biocide 0.5 ppm as Cl2, contact time 15 min
[19] = biocide 0.5 ppm as Cl2, contact time 30 min
[20] = biocide 0.5 ppm as Cl2, contact time 60 min
[21] = biocide 1 ppm as Cl2, contact time 0 (initial count)
[22] = biocide 1 ppm as Cl2, contact time 5 min
[23] = biocide 1 ppm as Cl2, contact time 15 min
[24] = biocide 1 ppm as Cl2, contact time 30 min
[25] = biocide 1 ppm as Cl2, contact time 60 min
[26] = biocide 2.5 ppm as Cl2, contact time 0 (initial count)
[27] = biocide 2.5 ppm as Cl2, contact time 5 min
[28] = biocide 2.5 ppm as Cl2, contact time 15 min
[29] = biocide 2.5 ppm as Cl2, contact time 30 min
[30] = biocide 2.5 ppm as Cl2, contact time 60 min
[31] = biocide 5 ppm as Cl2, contact time 0 (initial count)
[32] = biocide 5 ppm as Cl2, contact time 5 min
[33] = biocide 5 ppm as Cl2, contact time 15 min
[34] = biocide 5 ppm as Cl2, contact time 30 min
[35] = biocide 5 ppm as Cl2, contact time 60 min

`NC(=O)NBr` [bromourea] was tested, and the “% bacteria killed” value [1, 5] was 99.14%, the “% bacteria killed” value [1, 6] was 98.59% and the “% bacteria killed” value [1, 7] was 99.88%. The “% bacteria killed” value [1, 8] was 95.48%, the “% bacteria killed” value [1, 9] was 99.64% and the “% bacteria killed” value [1, 10] was 99.89%. For the same compound, the “% bacteria killed” value [1, 11] was 7.34%, the “% bacteria killed” value [1, 12] was 91.16% and the “% bacteria killed” value [1, 13] was 97.69%. The “% bacteria killed” value [2, 5] was 100%, the “% bacteria killed” value [2, 6] was 100% and the “% bacteria killed” value [2, 7] was 100%. For the same compound, the “% bacteria killed” value [2, 8] was 100%, the “% bacteria killed” value [2, 9] was 100% and the “% bacteria killed” value [2, 10] was 100%. The “% bacteria killed” value [2, 11] was 0%, the “% bacteria killed” value [2, 12] was 99.36% and the “% bacteria killed” value [2, 13] was 100%. For the same compound, the “% bacteria killed” value [2, 14] was 0%, the “% bacteria killed” value [2, 15] was 7.14% and the “% bacteria killed” value ([2]; biocide 10 ppm as Cl2) was 100%.
`NC(=O)NCl` [chlorourea] was tested, and the “% bacteria killed” value [1, 5] was 56.09%, the “% bacteria killed” value [1, 6] was 75.17% and the “% bacteria killed” value [1, 7] was 80.46%. For the same compound, the “% bacteria killed” value [1, 8] was 67.59%, the “% bacteria killed” value [1, 9] was 72.64% and the “% bacteria killed” value [1, 10] was 85.06%. The “% bacteria killed” value [1, 11] was 64.37%, the “% bacteria killed” value [1, 12] was 72.41% and the “% bacteria killed” value [1, 13] was 78.85%. The “survival of bacteria (CFU)” value [3, 16] was 8.40 × 10^7 CFU, the “survival of bacteria (CFU)” value [3, 17] was 5.90 × 10^6 CFU and the “survival of bacteria (CFU)” value [3, 18] was 5.30 × 10^6 CFU. For the same compound, the “survival of bacteria (CFU)” value [3, 19] was 5.60 × 10^6 CFU, the “survival of bacteria (CFU)” value [3, 20] was 2.25 × 10^6 CFU and the “survival of bacteria (CFU)” value [3, 21] was 8.40 × 10^7 CFU. For the same compound, the “survival of bacteria (CFU)” value [3, 22] was 7.50 × 10^6 CFU, the “survival of bacteria (CFU)” value [3, 23] was 7.20 × 10^6 CFU and the “survival of bacteria (CFU)” value [3, 24] was 9.40 × 10^5 CFU. The “survival of bacteria (CFU)” value [3, 25] was 9.13 × 10^2 CFU, the “survival of bacteria (CFU)” value [3, 26] was 8.40 × 10^7 CFU and the “survival of bacteria (CFU)” value [3, 27] was 7.80 × 10^6 CFU. The “survival of bacteria (CFU)” value [3, 28] was 2.60 × 10^6 CFU, the “survival of bacteria (CFU)” value [3, 29] was 2.21 × 10^3 CFU and the “survival of bacteria (CFU)” value [3, 30] was 1.00 × 10^0 CFU. The “survival of bacteria (CFU)” value [3, 31] was 8.40 × 10^7 CFU, the “survival of bacteria (CFU)” value [3, 32] was 6.70 × 10^6 CFU and the “survival of bacteria (CFU)” value [3, 33] was 6.50 × 10^4 CFU. For the same compound, the “survival of bacteria (CFU)” value [3, 34] was 1.00 × 10^0 CFU, the “survival of bacteria (CFU)” value [3, 35] was 1.00 × 10^0 CFU and the “% bacteria killed” value [2, 5] was 93.33%. For the same compound, the “% bacteria killed” value [2, 6] was 99.33%, the “% bacteria killed” value [2, 7] was 100% and the “% bacteria killed” value [2, 8] was 93.77%. The “% bacteria killed” value [2, 9] was 99.77%, the “% bacteria killed” value [2, 10] was 100% and the “% bacteria killed” value [2, 11] was 94.93%. The “% bacteria killed” value [2, 12] was 99.81%, the “% bacteria killed” value [2, 13] was 100% and the “% bacteria killed” value [2, 14] was 94.20%. For the same compound, the “% bacteria killed” value [2, 15] was 99.77% and the “% bacteria killed” value ([2]; biocide 10 ppm as Cl2) was 100%.
In the case of `[Na+].[O-]Cl` [NaOCl, reference compound], the “% kill” value ([4]; biocide 1 ppm as Cl2) is reported as 0%, the “% kill” value ([4]; biocide 2.5 ppm as Cl2) is reported as 0% and the “% kill” value ([4]; biocide 5 ppm as Cl2) is reported as 0%. The “% bacteria killed” value ([1]; TOC 0 ppm, biocide 1 ppm as Cl2) was 54.1%, the “% bacteria killed” value [1, 5] was 95.5% and the “% bacteria killed” value [1, 6] was 99.6%. The “% bacteria killed” value ([1]; TOC 10 ppm, biocide 1 ppm as Cl2) was 3.7%, the “% bacteria killed” value [1, 8] was 34.6% and the “% bacteria killed” value [1, 9] was 97.1%. The “% bacteria killed” value ([1]; TOC 50 ppm, biocide 1 ppm as Cl2) was 0%, the “% bacteria killed” value [1, 11] was 12.7% and the “% bacteria killed” value [1, 12] was 65.9%. The “survival of bacteria (CFU)” value [3, 16] was 8.00 × 10^6 CFU, the “survival of bacteria (CFU)” value [3, 17] was 7.90 × 10^6 CFU and the “survival of bacteria (CFU)” value [3, 18] was 5.65 × 10^6 CFU. The “survival of bacteria (CFU)” value [3, 19] was 4.72 × 10^6 CFU, the “survival of bacteria (CFU)” value [3, 20] was 5.00 × 10^6 CFU and the “survival of bacteria (CFU)” value [3, 21] was 8.00 × 10^6 CFU. For the same compound, the “survival of bacteria (CFU)” value [3, 22] was 4.40 × 10^6 CFU, the “survival of bacteria (CFU)” value [3, 23] was 3.30 × 10^6 CFU and the “survival of bacteria (CFU)” value [3, 24] was 2.15 × 10^6 CFU. The “survival of bacteria (CFU)” value [3, 25] was 1.20 × 10^6 CFU, the “survival of bacteria (CFU)” value [3, 26] was 8.00 × 10^6 CFU and the “survival of bacteria (CFU)” value [3, 27] was 3.60 × 10^6 CFU. The “survival of bacteria (CFU)” value [3, 28] was 1.83 × 10^6 CFU, the “survival of bacteria (CFU)” value [3, 29] was 7.60 × 10^6 CFU and the “survival of bacteria (CFU)” value [3, 30] was 1.95 × 10^5 CFU. For the same compound, the “survival of bacteria (CFU)” value [3, 31] was 8.00 × 10^6 CFU, the “survival of bacteria (CFU)” value [3, 32] was 1.74 × 10^6 CFU and the “survival of bacteria (CFU)” value [3, 33] was 6.80 × 10^6 CFU. For the same compound, the “survival of bacteria (CFU)” value [3, 34] was 3. × 10^6 CFU, the “survival of bacteria (CFU)” value [3, 35] was 1.00 × 10^0 CFU and the “% bacteria killed” value [2, 5] was 100%. For the same compound, the “% bacteria killed” value [2, 6] was 100%, the “% bacteria killed” value [2, 7] was 100% and the “% bacteria killed” value [2, 8] was 43.10%. For the same compound, the “% bacteria killed” value [2, 9] was 100%, the “% bacteria killed” value [2, 10] was 100% and the “% bacteria killed” value [2, 11] was 17.24%. The “% bacteria killed” value [2, 12] was 18.97%, the “% bacteria killed” value [2, 13] was 100% and the “% bacteria killed” value [2, 14] was 0%. The “% bacteria killed” value [2, 15] was 27.59% and the “% bacteria killed” value ([2]; biocide 10 ppm as Cl2) was 90.86%.

Reference: patent US9149041B2, “Stabilized and activated bromine solutions as a biocide and as an antifouling agent” (Bromine Compounds Ltd., priority 2009, dated 2015)
